Laboratory results published in patent US6008189A, “Intravaginal preparation containing physiologically active peptide” (Teikoku Seiyaku Kabushiki Kaisha, priority 1993, dated 1999).

What was measured:
Type in all cases: in vivo, rat
[1] = test system: Ovariectomized female Wistar rats; experiment: Experiment 5: serum calcium reduction, sucrose fatty acid ester with various organic acids; settings: 20 μg intravaginal
Experimental: (§1) An intravaginal suppository was administered into the rat's vagina, and the blood was collected periodically (2, 4 and 6 hours after administration of the test preparation).
(§2) The serum was separated, and the calcium level in the serum was determined by using a kit for determination of calcium (Calcium C Test Wako; manufactured by Wako Pure Chemical Industries, Ltd.) (n=3).
In the same manner as in Experiment 1, each intravaginal suppository was administered to the rat's vagina, and the blood was collected periodically (2, 4 and 6 hours after administration of intravaginal suppository), and the calcium level in the serum thereof was determined (n=5).

[2] = test system: Ovariectomized female Wistar rats; experiment: Experiment 4: serum calcium reduction, effect of sucrose fatty acid ester concentration; settings: sucrose fatty acid ester (S-970) 2 w/w % of suppository; citric acid 100 mg per 5.00 g; 20 μg intravaginal; 2 hr
Experimental: as §1, §2
Human calcitonin (2 mg) was precisely measured, and thereto were added citric acid (100 mg) and Ryoto-Sugar Ester S-970 (50 mg, 100 mg or 400 mg), and the mixture was mixed well.
In the same manner as in Experiment 1, each intravaginal suppository was administered to the rat's vagina, and the blood was collected periodically (2 and 4 hours after administration of intravaginal suppository), and the calcium level in the serum thereof was determined (n=3).

[3] = test system: Ovariectomized female Wistar rats; experiment: Experiment 7: serum calcium reduction, effect of pH of the solution in the suppository; settings: citric acid and S-970, 20 μg intravaginal
Experimental: as §1, §2
(§3) In the same manner as in Experiment 1, each intravaginal suppository was administered to the rat's vagina, and the blood was collected periodically (2, 4 and 6 hours after administration of intravaginal suppository), and the calcium level in the serum thereof was determined (n=3).

[4] = test system: Ovariectomized female Wistar rats; experiment: Experiment 6: serum calcium reduction, effect of organic acid concentration; settings: pH 3.5, S-970 100 mg per 5.00 g, 20 μg intravaginal
Experimental: as §1, §2, §3

[5] = test system: Ovariectomized female Wistar rats; experiment: Experiment 3: serum calcium reduction, effect of various sucrose fatty acid esters; settings: with citric acid, 20 μg intravaginal
Experimental: as §1, §2
In the same manner, there were prepared various sucrose fatty acid esters having the same HLB value but being combined with a different fatty acid (Table B), and four kinds of intravaginal suppositories for rats were prepared by using each 100 mg of sucrose fatty acid ester.
(§4) In the same manner as in Experiment 1, each intravaginal suppository was administered to the rat's vagina, and the blood was collected periodically (2, 4 and 6 hours after administration of intravaginal suppository), and the calcium level in the serum thereof was determined (n=4).

[6] = test system: Ovariectomized female Wistar rats; experiment: Experiment 2: serum calcium reduction, effect of various suppository bases; settings: S-970 and citric acid, 20 μg intravaginal
Experimental: as §1, §2, §4

[7] = test system: Ovariectomized female Wistar rats; experiment: Experiment 1: serum calcium reduction after intravaginal suppository, sucrose fatty acid ester plus citric acid versus each alone; settings: 20 μg intravaginal
Experimental: To the mixture was added a commercially available base for intravaginal preparation; Witepsol S-55 (which is prepared from Witepsol E-85 so as to give a final intravaginal suppository having a melting point of 36.5° C., manufactured by Hils Co., Ltd., former Diamit Novel Co., Ltd) which was homogenized by previously warming and stirring thereof so as to give an intravaginal suppository with the total weight of 5.00 g. […] The mixture was poured into a tube (inside diameter: about 3 mm) made of teflon at about 40° C., cooled to solidify, and taken out from the tube. The solidified mixture was cut into pieces (weight: 50 mg) to give intravaginal suppositories for rats containing human calcitonin (20 μg/each). There were also obtained two kinds of intravaginal suppositories prepared by adding citric acid (50 mg) only, and prepared by adding a sucrose fatty acid ester (100 mg) only, likewise. There were obtained intravaginal suppositories containing only human calcitonin without citric acid nor a sucrose fatty acid ester, likewise, which are used as control.
as §1, §2

Human calcitonin
Reduction rate (%) of calcium level in the serum ([1]; organic acid Citric acid (pH 4) with Ryoto-Sugar Ester R-970, 6 hr): 8.4%
Reduction rate (%) of calcium level in the serum ([1]; organic acid Lactic acid (pH 4) with Ryoto-Sugar Ester R-970, 2 hr): 17.0%
Reduction rate (%) of calcium level in the serum ([1]; organic acid Lactic acid (pH 4) with Ryoto-Sugar Ester R-970, 6 hr): 5.4%
Reduction rate (%) of calcium level in the serum ([1]; organic acid Malic acid (pH 4) with Ryoto-Sugar Ester R-970, 4 hr): 13.0%
Reduction rate (%) of calcium level in the serum ([1]; organic acid Malic acid (pH 4) with Ryoto-Sugar Ester R-970, 6 hr): 7.0%
Reduction rate (%) of calcium level in the serum ([1]; organic acid Tartaric acid (pH 4) with Ryoto-Sugar Ester R-970, 4 hr): 8.0%
Reduction rate (%) of calcium level in the serum ([1]; organic acid Tartaric acid (pH 4) with Ryoto-Sugar Ester R-970, 6 hr): 3.4%
Reduction rate (%) of calcium level in the serum [2]: 8.0%
Reduction rate (%) of calcium level in the serum ([3]; pH of the solution in suppository 3.0, 2 hr): 11.0%
Reduction rate (%) of calcium level in the serum ([3]; pH of the solution in suppository 3.0, 4 hr): 22.0%
Reduction rate (%) of calcium level in the serum ([3]; pH of the solution in suppository 3.0, 6 hr): 8.7%
Reduction rate (%) of calcium level in the serum ([3]; pH of the solution in suppository 3.5, 2 hr): 9.4%
Reduction rate (%) of calcium level in the serum ([3]; pH of the solution in suppository 3.5, 6 hr): 8.8%
Reduction rate (%) of calcium level in the serum ([3]; pH of the solution in suppository 4.0, 2 hr): 9.4%
Reduction rate (%) of calcium level in the serum ([3]; pH of the solution in suppository 4.5, 2 hr): 9.5%
Reduction rate (%) of calcium level in the serum ([3]; pH of the solution in suppository 4.5, 6 hr): 9.1%
Reduction rate (%) of calcium level in the serum ([3]; pH of the solution in suppository 5.0, 6 hr): 2.7%
Reduction rate (%) of calcium level in the serum ([3]; pH of the solution in suppository 5.5, 2 hr): 8.1%
Reduction rate (%) of calcium level in the serum ([3]; pH of the solution in suppository 5.5, 6 hr): 4.3%
Reduction rate (%) of calcium level in the serum ([4]; citric acid 1 w/w % of suppository, 6 hr): 9.2%
Reduction rate (%) of calcium level in the serum ([4]; citric acid 2 w/w % of suppository, 6 hr): 8.2%
Reduction rate (%) of calcium level in the serum ([4]; citric acid 5 w/w % of suppository, 6 hr): 7.5%
Reduction rate (%) of calcium level in the serum ([4]; citric acid 10 w/w % of suppository, 4 hr): 19.0%
Reduction rate (%) of calcium level in the serum ([4]; citric acid 10 w/w % of suppository, 6 hr): 5.0%
Reduction rate (%) of calcium level in the serum ([5]; Ryoto-Sugar Ester (S-570), HLB 5, stearic acid, 6 hr): 12.0%
Reduction rate (%) of calcium level in the serum ([5]; Ryoto-Sugar Ester L-595 + L-1695 3:2, HLB 9, lauric acid, 2 hr): 11.0%
Reduction rate (%) of calcium level in the serum ([5]; Ryoto-Sugar Ester L-595 + L-1695 3:2, HLB 9, lauric acid, 6 hr): 9.7%
Reduction rate (%) of calcium level in the serum ([5]; Ryoto-Sugar Ester P-070 + P-1670 4:5, HLB 9, palmitic acid, 2 hr): 8.2%
Reduction rate (%) of calcium level in the serum ([5]; Ryoto-Sugar Ester S-370 + S-1670 5:6, HLB 9, stearic acid, 2 hr): 6.9%
Reduction rate (%) of calcium level in the serum ([5]; Ryoto-Sugar Ester S-970 1:0 (control), HLB 9, stearic acid, 2 hr (Table 4)): 6.3%
Reduction rate (%) of calcium level in the serum ([5]; Ryoto-Sugar Ester S-970 1:0 (control), HLB 9, stearic acid, 6 hr (Table 4)): 11.0%
Reduction rate (%) of calcium level in the serum ([6]; base Cacao butter, 6 hr): 8.3%
Reduction rate (%) of calcium level in the serum ([6]; base Witepsol S-55, 6 hr): 13.0%
Reduction rate (%) of calcium level in the serum ([6]; base Witepsol W-35, 2 hr): 6.6%
Reduction rate (%) of calcium level in the serum ([7]; Control: suppository with human calcitonin only, no citric acid nor ester, 2 hr): 2.6%
Reduction rate (%) of calcium level in the serum ([7]; Control: suppository with human calcitonin only, no citric acid nor ester, 4 hr): 2.2%
Reduction rate (%) of calcium level in the serum ([7]; Control: suppository with human calcitonin only, no citric acid nor ester, 6 hr): 3.8%
Reduction rate (%) of calcium level in the serum ([7]; suppository with citric acid only, 2 hr): 9.5%
Reduction rate (%) of calcium level in the serum ([7]; suppository with citric acid only, 4 hr): 8.0%
Reduction rate (%) of calcium level in the serum ([7]; suppository with citric acid only, 6 hr): 5.7%
